Measurements: patent publication US4492693A, “Benzothienylglycyl cephalosporin derivatives” (priority 1983, dated 1985)
Values after ≈ are worked out from the molar mass of the structure shown. Like-named read-outs stand apart in the source and are kept apart here.

How the values were obtained:
Assay in all cases: Agar Dilution MIC (Table I)
Format in all cases: cell-based
[1] = system: Staph. aureus; conditions: Staphylococcus aureus
[2] = system: Staph. epi; conditions: read-out: Agar Dilution MIC
[3] = system: Strep. D; conditions: for MIC: read-out: Agar Dilution MIC
From the text: A typical and preferred compound provided by this invention is 7-(3-benzothienyl)glycylamido-3-methyl-3-cephem-4-carboxylic acid, the compound illustrated in Example 9. The antibacterial activity of this compound has been determined in standard in vitro agar dilution assays against a variety of gram positive and gram negative microorganism. The following Tables present typical minimum inhibitory concentrations (MIC's) in μg/ml for several compounds of the invention when evaluated against the indicated microorganisms. MIC's for several known compounds are also presented for comparison.
Agar Dilution MIC (μg/ml)

[4] = system: H. influ.; conditions: read-out: Agar Dilution MIC
[5] = system: E. coli; conditions: Escherichia coli
[6] = system: Klebsiella; conditions: for MIC: Klebsiella, read-out: Agar Dilution MIC
[7] = system: Strep. A; conditions: strain C203; read-out: Agar Dilution MIC
[8] = system: Strep. PN; conditions: strain PARK
[9] = strain V41, read-out: Agar Dilution MIC
[10] = strain X1.1, read-out: Agar Dilution MIC
[11] = strain X400, read-out: Agar Dilution MIC
[12] = read-out: Agar Dilution MIC, strain S13E

Row | SMILES | MIC [1, 9] | MIC [1, 10] | MIC [1, 11] | MIC ([2]; strain 222) | MIC ([2]; strain EPI1) | MIC ([3]; strain 2041) | MIC ([3]; strain X66) | MIC ([4]; strain 76) | MIC ([4]; strain C.L.) | MIC ([5]; strain EC14) | MIC ([5]; strain N10) | MIC ([5]; strain TEM) | MIC ([6]; strain KAE) | MIC ([6]; strain X26) | MIC ([6]; strain X68) | MIC [7] | MIC [8] | MIC [1, 12] | other results
1 | C=CC1=C(C(=O)O)N2C(=O)C(NC(=O)[C@H](N)c3csc4ccccc34)C2SC1 (stereo partly drawn) [Ex. 35, D-7-(3-Benzothienylglycylamido)-3-vinyl-3-cephem-4-carboxylic acid] | 16 µg/mL (≈ 38.5 µM) | 2 µg/mL (≈ 4.81 µM) | 32 µg/mL (≈ 77 µM) | 2 µg/mL (≈ 4.81 µM) | 8 µg/mL (≈ 19.3 µM) | 32 µg/mL (≈ 77 µM) | 64 µg/mL (≈ 154 µM) | 1 µg/mL (≈ 2.41 µM) | 8 µg/mL (≈ 19.3 µM) | 128 µg/mL (≈ 308 µM) | 128 µg/mL (≈ 308 µM) | 128 µg/mL (≈ 308 µM) | 128 µg/mL (≈ 308 µM) | 8 µg/mL (≈ 19.3 µM) | 128 µg/mL (≈ 308 µM) |  |  |  | 
2 | CC1=C(C(=O)O)N2C(=O)C(NC(=O)[C@H](N)c3csc4cc(Cl)ccc34)C2SC1 (stereo partly drawn) [Ex. 37B, D-7-(6-chloro-3-benzothienyl)glycylamido-3-methyl-3-cephem-4-carboxylic acid] | 8 µg/mL (≈ 18.3 µM) | 1 µg/mL (≈ 2.28 µM) | 16 µg/mL (≈ 36.5 µM) | 2 µg/mL (≈ 4.57 µM) | 4 µg/mL (≈ 9.13 µM) | 32 µg/mL (≈ 73.1 µM) | 128 µg/mL (≈ 292 µM) | 1 µg/mL (≈ 2.28 µM) | 8 µg/mL (≈ 18.3 µM) | 128 µg/mL (≈ 292 µM) | 128 µg/mL (≈ 292 µM) | 128 µg/mL (≈ 292 µM) | 128 µg/mL (≈ 292 µM) | 4 µg/mL (≈ 9.13 µM) | 128 µg/mL (≈ 292 µM) | 0.5 µg/mL (≈ 1.14 µM) | 1 µg/mL (≈ 2.28 µM) |  | 
3 | CC1=C(C(=O)O)N2C(=O)C(NC(=O)[C@H](N)c3csc4cccc(Cl)c34)C2SC1 (stereo partly drawn) [Ex. 36B, D-7-(4-chloro-3-benzothienyl)glycylamido-3-methyl-3-cephem-4-carboxylic acid] | 128 µg/mL (≈ 292 µM) | 16 µg/mL (≈ 36.5 µM) | 128 µg/mL (≈ 292 µM) | 8 µg/mL (≈ 18.3 µM) |  |  |  | 16 µg/mL (≈ 36.5 µM) |  | 128 µg/mL (≈ 292 µM) | 128 µg/mL (≈ 292 µM) | 128 µg/mL (≈ 292 µM) |  |  |  | 8 µg/mL (≈ 18.3 µM) | 8 µg/mL (≈ 18.3 µM) | 128 µg/mL (≈ 292 µM) | MIC [2]: 128 µg/mL (≈ 292 µM); MIC [3]: 128 µg/mL (≈ 292 µM); Agar Dilution MIC ([3]; strain 2041): 128 µg/mL; MIC [4]: 128 µg/mL (≈ 292 µM); MIC [6]: 128 µg/mL (≈ 292 µM); Agar Dilution MIC ([6]; strain KAE): 128 µg/mL; Agar Dilution MIC ([6]; strain X68): 128 µg/mL
4 | CC1(C)S[C@@H]2[C@H](NC(=O)[C@H](N)c3ccccc3)C(=O)N2[C@H]1C(=O)O [Ampicillin, reference compound] |  |  |  |  |  |  | 4 µg/mL (≈ 11.4 µM) | 16 µg/mL (≈ 45.8 µM) | 0.5 µg/mL (≈ 1.43 µM) | 4 µg/mL (≈ 11.4 µM) | 8 µg/mL (≈ 22.9 µM) |  |  |  |  |  |  |  | 
5 | CC1=C(C(=O)O)N2C(=O)C(NC(=O)[C@@H](N)c3csc4ccc(Cl)cc34)C2SC1 (stereo partly drawn) [Ex. 38A, L-7-(5-chloro-3-benzothienyl)glycylamido-3-methyl-3-cephem-4-carboxylic acid] | 32 µg/mL (≈ 73.1 µM) | 8 µg/mL (≈ 18.3 µM) | 64 µg/mL (≈ 146 µM) | 16 µg/mL (≈ 36.5 µM) | 16 µg/mL (≈ 36.5 µM) | 64 µg/mL (≈ 146 µM) | 64 µg/mL (≈ 146 µM) | 2 µg/mL (≈ 4.57 µM) | 32 µg/mL (≈ 73.1 µM) | 64 µg/mL (≈ 146 µM) | 64 µg/mL (≈ 146 µM) | 64 µg/mL (≈ 146 µM) | 64 µg/mL (≈ 146 µM) | 16 µg/mL (≈ 36.5 µM) | 64 µg/mL (≈ 146 µM) | 1 µg/mL (≈ 2.28 µM) | 2 µg/mL (≈ 4.57 µM) | 16 µg/mL (≈ 36.5 µM) | 
